Read-outs that look alike come from different tables or passages of the source.
Details: 40° C./75% RH open, 60° C. closed

With `CC(C)OC(=O)[C@H](C)N[P@](=O)(CO[C@H](C)Cn1cnc2c(N)ncnc21)Oc1ccccc1` [tenofovir alafenamide hemifumarate] the “rate of degradation of tenofovir alafenamide hemifumarate” value (in the presence of both emtricitabine and rilpivirine HCl) was “further increased” and the “rate of degradation of tenofovir alafenamide hemifumarate” value (in the presence of emtricitabine) was “increased”.
